The OPERA property sets (Mansouri et al. 2018)

SMILES | logP
N#CCCCl | 0.18
CC(C)C#N | 0.46
C=CCC#N | 0.4
CCC(C)C#N (stereo unspecified) | 1.05
CCCCCCCCC#N | 3.12
CC(C)CCC#N | 1.54
CCCCCC#N | 1.66
C=C(C)C#N | 0.68
CCCC#N | 0.53
N#CCCCCl | 0.56
CCCCCCCC#N | 2.75
